Where two headings read alike, the source gives them in different places.
Tests used:
[1] = test system: MDA-MB-23; experiment: SRB antiproliferative assay; type: cell-based; settings: Homo sapiens, MDA-MB-23
From the text: (§1) The cells were passaged using Trypsin (Gibco).

[2] = test system: MMRU; experiment: SRB antiproliferative assay; type: cell-based; settings: Homo sapiens
From the text: as §1

[3] = test system: H460 large cell lung carcinoma; experiment: Mouse xenograft tumor growth; type: in vivo, CD-1 nude mice
[4] = test system: RL-60 (TS); experiment: In-Vitro Testing SRB panel: Leukemia; type: cell-based; settings: 48 h
[5] = test system: K-562; experiment: In-Vitro Testing SRB panel: Leukemia; type: cell-based
[6] = test system: RPMI-8226; experiment: In-Vitro Testing SRB panel: Leukemia; type: cell-based; settings: RPMI-8226, 48 h
[7] = test system: NCI-H522; type: cell-based; settings: NCI-H522, 48 h
[8] = test system: SF-268; experiment: In-Vitro Testing SRB panel: CNS Cancer; type: cell-based; settings: SF-268, 48 h
[9] = test system: LOX IMVI; experiment: In-Vitro Testing SRB panel: Melanoma; type: cell-based; settings: 48 h
[10] = test system: MALM-3M; experiment: In-Vitro Testing SRB panel: Melanoma; type: cell-based; settings: 48 h
[11] = test system: OVCAR-4; experiment: In-Vitro Testing SRB panel: Ovarian Cancer; type: cell-based; settings: OVCAR-4, 48 h
[12] = test system: 786-0; experiment: In-Vitro Testing SRB panel: Renal Cancer; type: cell-based; settings: 786-0, 48 h
[13] = test system: SN12C; experiment: In-Vitro Testing SRB panel: Renal Cancer; type: cell-based; settings: 48 h
[14] = test system: TK-10; experiment: In-Vitro Testing SRB panel: Renal Cancer; type: cell-based; settings: TK-10, 48 h
[15] = test system: PC-3; experiment: In-Vitro Testing SRB panel: Prostate Cancer; type: cell-based; settings: PC-3, 48 h
[16] = test system: DU-145; experiment: In-Vitro Testing SRB panel: Prostate Cancer; type: cell-based; settings: DU-145, 48 h
[17] = test system: NCI/ADR-RES; experiment: In-Vitro Testing SRB panel: Breast Cancer; type: cell-based; settings: 48 h
[18] = test system: T-47D; experiment: In-Vitro Testing SRB panel: Breast Cancer; type: cell-based; settings: 48 h
[19] = test system: ERVX; settings: 48 h
[20] = Homo sapiens, read-out: LC50 (the source's name)

Work on `O=C(c1ccc([N+](=O)[O-])cc1)N1Cc2ccccc2C(c2ccccc2Cl)c2ccccc21` (stereo not drawn) [Compound 28, N-(4′-Nitrobenzoyl)-11-(2′-chlorophenyl)-5,6-dihydro-11H-dibenz[b,e]azepine] yielded an IC50 [1] of 0.5 µM, an IC50 ([2]; MMRU (Melanoma), 5% FCS/5 day incubation) of 0.2 µM and an IC50 ([2]; MMRU, 5% FCS/3 days) of under 1.25 µM. The tumor growth [3] was “significantly inhibited tumor growth”, the GI50 ([4]; Homo sapiens) was 0.489 µM and the CC50 ([4]; Homo sapiens, RL-60 (TS), read-out: LC50 (the source's name)) was over 100 µM. For the same compound, the TGI ([4]; RL-60 (TS)) was 7.71E−05 Molar, the “Percent Growth” value ([4]; RL-60 (TS), log10 conc −4.0 Molar) was 1% and the “Percent Growth” value ([4]; RL-60 (TS), log10 conc −5.0 Molar) was 5%. For the same compound, the “Percent Growth” value ([4]; RL-60 (TS), log10 conc −6.0 Molar) was 41%, the “Percent Growth” value ([4]; RL-60 (TS), log10 conc −7.0 Molar) was 71% and the “Percent Growth” value ([4]; RL-60 (TS), log10 conc −8.0 Molar) was 76%. For the same compound, the GI50 ([5]; Homo sapiens, K562, 48 h) was 0.394 µM, the CC50 ([5]; Homo sapiens, K562, K-562, 48 h, read-out: LC50 (the source's name)) was over 100 µM and the TGI ([5]; K-562, 48 h) was over 1.00E−04 Molar. For the same compound, the “Percent Growth” value ([5]; K-562, log10 conc −4.0 Molar, 48 h) was 26%, the “Percent Growth” value ([5]; K-562, log10 conc −5.0 Molar, 48 h) was 25% and the “Percent Growth” value ([5]; K-562, log10 conc −6.0 Molar, 48 h) was 38%. The “Percent Growth” value ([5]; K-562, log10 conc −7.0 Molar, 48 h) was 68%, the “Percent Growth” value ([5]; K-562, log10 conc −8.0 Molar, 48 h) was 82% and the GI50 ([6]; Homo sapiens) was 0.522 µM. For the same compound, the CC50 [6, 20] was over 100 µM, the TGI [6] was over 1.00E−04 Molar and the “Percent Growth” value ([6]; log10 conc −4.0 Molar) was 12%. For the same compound, the “Percent Growth” value ([6]; log10 conc −5.0 Molar) was 36%, the “Percent Growth” value ([6]; log10 conc −6.0 Molar) was 46% and the “Percent Growth” value ([6]; log10 conc −7.0 Molar) was 61%. For the same compound, the “Percent Growth” value ([6]; log10 conc −8.0 Molar) was 74%, the GI50 ([7]; Homo sapiens) was 0.337 µM and the CC50 [7, 20] was over 100 µM. The TGI [7] was over 2.72E−05 Molar, the “Percent Growth” value ([7]; log10 conc −4.0 Molar) was −16% and the “Percent Growth” value ([7]; log10 conc −5.0 Molar) was 12%. For the same compound, the “Percent Growth” value ([7]; log10 conc −6.0 Molar) was 13%, the “Percent Growth” value ([7]; log10 conc −7.0 Molar) was 91% and the “Percent Growth” value ([7]; log10 conc −8.0 Molar) was 99%. For the same compound, the GI50 ([8]; Homo sapiens) was 1.66 µM, the CC50 [8, 20] was over 100 µM and the TGI [8] was over 1.00E−04 Molar. The “Percent Growth” value ([8]; log10 conc −4.0 Molar) was 19%, the “Percent Growth” value ([8]; log10 conc −5.0 Molar) was 34% and the “Percent Growth” value ([8]; log10 conc −6.0 Molar) was 55%. For the same compound, the “Percent Growth” value ([8]; log10 conc −7.0 Molar) was 81%, the “Percent Growth” value ([8]; log10 conc −8.0 Molar) was 94% and the TGI [9] was over 1.00E−04 Molar. The GI50 ([9]; Homo sapiens) was 0.382 µM, the CC50 [9, 20] was over 100 µM and the “Percent Growth” value ([9]; log10 conc −4.0 Molar) was 9%. The “Percent Growth” value ([9]; log10 conc −5.0 Molar) was 8%, the “Percent Growth” value ([9]; log10 conc −6.0 Molar) was 19% and the “Percent Growth” value ([9]; log10 conc −7.0 Molar) was 93%. The “Percent Growth” value ([9]; log10 conc −8.0 Molar) was 103%, the GI50 ([10]; Homo sapiens) was 49.6 µM and the CC50 ([10]; Homo sapiens, MALM-3M, read-out: LC50 (the source's name)) was over 100 µM. For the same compound, the TGI ([10]; MALM-3M) was over 1.00E−04 Molar, the “Percent Growth” value ([10]; MALM-3M, log10 conc −4.0 Molar) was 39% and the “Percent Growth” value ([10]; MALM-3M, log10 conc −5.0 Molar) was 76%. The “Percent Growth” value ([10]; MALM-3M, log10 conc −6.0 Molar) was 79%, the “Percent Growth” value ([10]; MALM-3M, log10 conc −7.0 Molar) was 85% and the “Percent Growth” value ([10]; MALM-3M, log10 conc −8.0 Molar) was 92%. For the same compound, the GI50 ([11]; Homo sapiens) was 0.974 µM, the CC50 [11, 20] was over 100 µM and the TGI [11] was over 1.00E−04 Molar. For the same compound, the “Percent Growth” value ([11]; log10 conc −4.0 Molar) was 10%, the “Percent Growth” value ([11]; log10 conc −5.0 Molar) was 16% and the “Percent Growth” value ([11]; log10 conc −6.0 Molar) was 50%. For the same compound, the “Percent Growth” value ([11]; log10 conc −7.0 Molar) was 80%, the “Percent Growth” value ([11]; log10 conc −8.0 Molar) was 98% and the TGI [12] was over 1.00E−04 Molar. For the same compound, the “Percent Growth” value ([12]; log10 conc −4.0 Molar) was 27%, the “Percent Growth” value ([12]; log10 conc −5.0 Molar) was 31% and the “Percent Growth” value ([12]; log10 conc −6.0 Molar) was 51%. The “Percent Growth” value ([12]; log10 conc −7.0 Molar) was 102%, the “Percent Growth” value ([12]; log10 conc −8.0 Molar) was 100% and the GI50 ([12]; Homo sapiens) was 1.16 µM. For the same compound, the CC50 [12, 20] was over 100 µM, the TGI [13] was over 1.00E−04 Molar and the GI50 ([13]; Homo sapiens) was 4.52 µM. For the same compound, the CC50 [13, 20] was over 100 µM, the “Percent Growth” value ([13]; log10 conc −4.0 Molar) was 23% and the “Percent Growth” value ([13]; log10 conc −5.0 Molar) was 36%. For the same compound, the “Percent Growth” value ([13]; log10 conc −6.0 Molar) was 77%, the “Percent Growth” value ([13]; log10 conc −7.0 Molar) was 103% and the “Percent Growth” value ([13]; log10 conc −8.0 Molar) was 100%. The GI50 ([14]; Homo sapiens) was 51.3 µM, the CC50 [14, 20] was over 100 µM and the TGI [14] was over 1.00E−04 Molar. For the same compound, the “Percent Growth” value ([14]; log10 conc −4.0 Molar) was 48%, the “Percent Growth” value ([14]; log10 conc −5.0 Molar) was 54% and the “Percent Growth” value ([14]; log10 conc −6.0 Molar) was 76%. The “Percent Growth” value ([14]; log10 conc −7.0 Molar) was 93%, the “Percent Growth” value ([14]; log10 conc −8.0 Molar) was 102% and the GI50 ([15]; Homo sapiens) was 0.501 µM. For the same compound, the CC50 [15, 20] was over 100 µM, the TGI [15] was 9.10E−06 Molar and the “Percent Growth” value ([15]; log10 conc −4.0 Molar) was −9%. For the same compound, the “Percent Growth” value ([15]; log10 conc −5.0 Molar) was −2%, the “Percent Growth” value ([15]; log10 conc −6.0 Molar) was 40% and the “Percent Growth” value ([15]; log10 conc −7.0 Molar) was 74%. For the same compound, the “Percent Growth” value ([15]; log10 conc −8.0 Molar) was 109%, the TGI [16] was over 1.00E−04 Molar and the “Percent Growth” value ([16]; log10 conc −4.0 Molar) was 27%. The “Percent Growth” value ([16]; log10 conc −5.0 Molar) was 30%, the “Percent Growth” value ([16]; log10 conc −6.0 Molar) was 54% and the “Percent Growth” value ([16]; log10 conc −7.0 Molar) was 98%. For the same compound, the “Percent Growth” value ([16]; log10 conc −8.0 Molar) was 100%, the GI50 ([16]; Homo sapiens) was 1.52 µM and the CC50 [16, 20] was over 100 µM. The TGI [17] was over 1.00E−04 Molar, the GI50 ([17]; Homo sapiens) was 3.22 µM and the CC50 [17, 20] was over 100 µM. For the same compound, the “Percent Growth” value ([17]; log10 conc −4.0 Molar) was 20%, the “Percent Growth” value ([17]; log10 conc −5.0 Molar) was 27% and the “Percent Growth” value ([17]; log10 conc −6.0 Molar) was 74%. The “Percent Growth” value ([17]; log10 conc −7.0 Molar) was 105%, the “Percent Growth” value ([17]; log10 conc −8.0 Molar) was 97% and the GI50 ([18]; Homo sapiens, T47D) was 1.44 µM. For the same compound, the CC50 ([18]; Homo sapiens, T47D, T-47D, read-out: LC50 (the source's name)) was over 100 µM, the TGI ([18]; T-47D) was over 1.00E−04 Molar and the “Percent Growth” value ([18]; T-47D, log10 conc −4.0 Molar) was 26%. The “Percent Growth” value ([18]; T-47D, log10 conc −5.0 Molar) was 21%, the “Percent Growth” value ([18]; T-47D, log10 conc −6.0 Molar) was 55% and the “Percent Growth” value ([18]; T-47D, log10 conc −7.0 Molar) was 90%. The “Percent Growth” value ([18]; T-47D, log10 conc −8.0 Molar) was 95%, the TGI ([19]; ERVX) was over 1.00E−04 Molar and the “Percent Growth” value ([19]; ERVX, log10 conc −4.0 Molar) was 23%. The “Percent Growth” value ([19]; ERVX, log10 conc −5.0 Molar) was 24%, the “Percent Growth” value ([19]; ERVX, log10 conc −6.0 Molar) was 51% and the “Percent Growth” value ([19]; ERVX, log10 conc −7.0 Molar) was 93%. The “Percent Growth” value ([19]; ERVX, log10 conc −8.0 Molar) was 85%, the GI50 ([19]; Homo sapiens) was 1.13 µM and the CC50 ([19]; Homo sapiens, read-out: LC50) was over 100 µM.

Reference: patent US6992079B2, “Substituted 11-phenyl-dibenzazepine compounds useful for the treatment or prevention of diseases characterized by abnormal cell proliferation” (President Fellows of Harvard College, priority 1997, dated 2006)
